From patent publication US20230174492A1, “SUBSTITUTED CONDENSED AZINES AS ANTHELMINTIC COMPOUNDS” (Bayer Animal Health GmbH, priority 2020, published 2023)
pEC50: −log10 of the molar value.

Columns and labels:
Assay type in all cases: cell-based
[1] = system: Nippostrongylus brasiliensis; experiment: In Vitro Assay 3: Nippostrongylus brasiliensis (NIPOBR), acetylcholine esterase readout; settings: read-out: activity (reduction of AChE compared to negative control)
[2] = system: Nippostrongylus brasiliensis; experiment: as above; settings: adult worms, read-out: activity (reduction of AChE compared to negative control); for inhibition at 1 µg/mL: at 1 μg/ml; for inhibition at 10 µg/mL: at 10 μg/ml
Method: In Vitro Assay 3: Nippostrongylus brasiliensis (NIPOBR)
Adult Nippostrongylus brasiliensis are washed with saline buffer containing 100 U/ml penicillin, 0.1 mg/ml streptomycin and 2.5 μg/ml amphotericin B. Test compounds are dissolved in DMSO and worms are incubated in medium in a final concentration of 10 μg/ml (10 ppm) respectively 1 μg/ml (1 ppm). An aliquot of the medium is used to determine the acetylcholine esterase activity in comparison to a negative control. The principle of measuring acetylcholine esterase as readout for anthelmintic activity is described in Rapson et al (1986) and Rapson et al (1987).

[3] = system: Dirofilaria immitis microfilariae; experiment: In Vitro Assay 4: Dirofilaria immitis microfilariae (DIROIM L1), motility; settings: 72 h
[4] = system: Dirofilaria immitis third-stage larvae; experiment: In Vitro Assay 5: Dirofilaria immitis (DIROIM L4), motility; settings: 72 h
D. immitis Slo-1 = D. immitis Slo-1 (Dirofilaria immitis, UniProt I0DFK5); experiment: In Vitro Assay 2: D. immitis Slo-1, action at a recombinant D. immitis cell line (membrane potential, FLIPR)
Chain of D. immitis Slo-1 (I0DFK5 1-1119): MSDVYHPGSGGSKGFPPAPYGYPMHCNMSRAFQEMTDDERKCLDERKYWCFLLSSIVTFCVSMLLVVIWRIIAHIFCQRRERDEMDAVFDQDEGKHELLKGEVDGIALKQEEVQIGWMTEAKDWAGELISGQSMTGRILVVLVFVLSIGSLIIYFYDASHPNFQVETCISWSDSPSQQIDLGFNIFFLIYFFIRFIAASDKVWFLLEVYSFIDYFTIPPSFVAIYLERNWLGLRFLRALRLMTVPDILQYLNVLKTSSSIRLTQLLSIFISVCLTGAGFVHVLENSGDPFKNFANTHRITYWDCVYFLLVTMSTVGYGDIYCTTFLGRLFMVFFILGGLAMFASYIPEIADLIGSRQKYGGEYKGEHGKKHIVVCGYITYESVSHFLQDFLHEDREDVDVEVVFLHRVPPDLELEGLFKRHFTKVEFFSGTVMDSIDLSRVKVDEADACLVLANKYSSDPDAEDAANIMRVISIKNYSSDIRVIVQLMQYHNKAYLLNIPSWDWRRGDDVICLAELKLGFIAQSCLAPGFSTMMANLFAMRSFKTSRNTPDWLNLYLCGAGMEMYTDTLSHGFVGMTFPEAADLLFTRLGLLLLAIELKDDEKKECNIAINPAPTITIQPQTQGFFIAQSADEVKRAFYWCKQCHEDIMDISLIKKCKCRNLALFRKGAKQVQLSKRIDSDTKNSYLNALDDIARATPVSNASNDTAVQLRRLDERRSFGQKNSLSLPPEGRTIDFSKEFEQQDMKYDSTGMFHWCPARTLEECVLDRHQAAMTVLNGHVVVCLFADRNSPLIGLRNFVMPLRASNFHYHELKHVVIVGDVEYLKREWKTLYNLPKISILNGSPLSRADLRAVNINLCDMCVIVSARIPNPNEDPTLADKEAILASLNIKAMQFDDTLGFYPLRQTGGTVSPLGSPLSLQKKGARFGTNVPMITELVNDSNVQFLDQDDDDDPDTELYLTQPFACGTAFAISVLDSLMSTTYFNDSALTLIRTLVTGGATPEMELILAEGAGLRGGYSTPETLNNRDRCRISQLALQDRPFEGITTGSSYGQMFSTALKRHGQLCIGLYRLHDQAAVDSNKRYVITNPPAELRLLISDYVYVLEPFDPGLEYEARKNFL

Structure (SMILES): CN(C)c1c(NC(=O)C2CCOc3ccccc32)cnc2c(-c3cc(F)cc(F)c3F)cccc12 (racemic) [Example 5, N-(4-(Dimethylamino)-8-(2,3,5-trifluorophenyl)quinolin-3-yl)chroman-4-carboxamide]
- inhibition at 0.1 µg/mL [1]: > 80%
- inhibition at 1 µg/mL [2]: > 80%
- inhibition at 10 µg/mL [2]: > 80%
- EC50 [3]: < 0.1 µg/mL
- EC50 [4]: < 0.1 µg/mL
- pEC50 (D. immitis Slo-1): 6.00 to 7.00

Structure (SMILES): CN(C)c1c(NC(=O)C2CCc3ccccc32)cnc2c(-c3cc(F)cc(F)c3F)cccc12 (racemic) [Example 6, N-(4-(Dimethylamino)-8-(2,3,5-trifluorophenyl)quinolin-3-yl)-2,3-dihydro-1H-indene-1-carboxamide]
- EC50 [3]: < 0.1 µg/mL
- EC50 [4]: < 0.1 µg/mL
- pEC50 (D. immitis Slo-1): 6.00 to 7.00

Structure (SMILES): O=C(Nc1cnc2c(-c3cc(F)cc(F)c3F)cccc2c1N1CCOCC1)C1CCOc2ccccc21 (racemic) [Example 7, N-(4-Morpholino-8-(2,3,5-trifluorophenyl)quinolin-3-yl)chroman-4-carboxamide]
- inhibition at 1 µg/mL [2]: > 80%
- inhibition at 10 µg/mL [2]: > 80%
- EC50 [3]: < 0.1 µg/mL
- EC50 [4]: < 0.1 µg/mL
- pEC50 (D. immitis Slo-1): 7.00 to 8.00

Structure (SMILES): CCc1c(NC(=O)C2CCOc3ccccc32)cnc2c(-c3cc(F)cc(F)c3F)cccc12 (racemic) [Example 8, N-(4-Ethyl-8-(2,3,5-trifluorophenyl)quinolin-3-yl)chroman-4-carboxamide]
- inhibition at 1 µg/mL [2]: > 80%
- inhibition at 10 µg/mL [2]: > 80%
- EC50 [4]: < 0.1 µg/mL
- pEC50 (D. immitis Slo-1): 6.00 to 7.00

Structure (SMILES): O=C(Nc1cnc2c(-c3cc(F)cc(F)c3F)cccc2c1C1CCOCC1)C1CCOc2ccccc21 (racemic) [Example 9, N-(4-(Tetrahydro-2H-pyran-4-yl)-8-(2,3,5-trifluorophenyl)quinolin-3-yl)chroman-4-carboxamide]
- inhibition at 0.1 µg/mL [1]: > 80%
- inhibition at 1 µg/mL [2]: > 80%
- inhibition at 10 µg/mL [2]: > 80%
- EC50 [3]: < 0.1 µg/mL
- EC50 [4]: < 0.1 µg/mL
- pEC50 (D. immitis Slo-1): 6.00 to 7.00

Structure (SMILES): O=C(Nc1cnc2c(-c3cc(F)cc(F)c3F)c(F)ccc2c1C1CCOCC1)C1CCOc2ccccc21 (racemic) [Example 10, N-(7-Fluoro-4-(tetrahydro-2H-pyran-4-yl)-8-(2,3,5-trifluorophenyl)quinolin-3-yl)chroman-4-carboxamide]
- inhibition at 0.1 µg/mL [1]: > 80%
- inhibition at 1 µg/mL [2]: > 80%
- inhibition at 10 µg/mL [2]: > 80%
- EC50 [3]: < 0.1 µg/mL
- EC50 [4]: < 0.1 µg/mL
- pEC50 (D. immitis Slo-1): 7.00 to 8.00

Structure (SMILES): CN(C)c1c(NC(=O)C2CCOc3ccccc32)cnc2c(-c3cc(F)cc(F)c3F)c(F)ccc12 (racemic) [Example 11, N-(4-(dimethylamino)-7-fluoro-8-(2,3,5-trifluorophenyl)quinolin-3-yl)chroman-4-carboxamide]
- inhibition at 0.1 µg/mL [1]: > 80%
- inhibition at 1 µg/mL [2]: > 80%
- inhibition at 10 µg/mL [2]: > 80%
- EC50 [3]: < 0.1 µg/mL
- EC50 [4]: < 0.1 µg/mL
- pEC50 (D. immitis Slo-1): 7.00 to 8.00

Structure (SMILES): CN(C)c1c(NC(=O)C2CCc3ccccc32)cnc2c(-c3cc(F)cc(F)c3F)c(F)ccc12 (racemic) [Example 12, N-(4-(dimethylamino)-7-fluoro-8-(2,3,5-trifluorophenyl)quinolin-3-yl)-2,3-dihydro-1H-indene-1-carboxamide]
- EC50 [3]: < 0.1 µg/mL
- EC50 [4]: < 0.1 µg/mL
- pEC50 (D. immitis Slo-1): 6.00 to 7.00

Structure (SMILES): CCc1c(NC(=O)C2CCOc3ccccc32)cnc2c(-c3cc(F)cc(F)c3F)c(F)ccc12 (racemic) [Example 13, N-(4-ethyl-7-fluoro-8-(2,3,5-trifluorophenyl)quinolin-3-yl)chromane-4-carboxamide]
- inhibition at 0.1 µg/mL [1]: > 80%
- inhibition at 1 µg/mL [2]: > 80%
- inhibition at 10 µg/mL [2]: > 80%
- EC50 [3]: < 0.1 µg/mL
- EC50 [4]: < 0.1 µg/mL
- pEC50 (D. immitis Slo-1): 7.00 to 8.00

Structure (SMILES): O=C(Nc1cnc2c(-c3cc(Cl)cc(Cl)c3)cccc2c1C1CCOCC1)C1CCc2ccccc21 (racemic) [Example 14, N-(8-(3,5-dichlorophenyl)-4-(tetrahydro-2H-pyran-4-yl)quinolin-3-yl)-2,3-dihydro-1H-indene-1-carboxamide]
- inhibition at 0.1 µg/mL [1]: > 80%
- inhibition at 1 µg/mL [2]: > 80%
- inhibition at 10 µg/mL [2]: > 80%
- EC50 [3]: < 0.1 µg/mL
- EC50 [4]: < 0.1 µg/mL
- pEC50 (D. immitis Slo-1): 6.00 to 7.00

Structure (SMILES): O=C(Nc1cnc2c(-c3cc(Cl)cc(Cl)c3)c(F)ccc2c1N1CCOCC1)C1CCOc2ccccc21 (racemic) [Example 15, N-(8-(3,5-dichlorophenyl)-7-fluoro-4-morpholinoquinolin-3-yl)chromane-4-carboxamide]
- inhibition at 1 µg/mL [2]: > 80%
- inhibition at 10 µg/mL [2]: > 80%
- EC50 [3]: < 0.1 µg/mL
- EC50 [4]: < 0.1 µg/mL
- pEC50 (D. immitis Slo-1): 7.00 to 8.00

Structure (SMILES): CCc1c(NC(=O)C2CCOc3ccccc32)cnc2c(-c3cc(Cl)cc(Cl)c3)c(F)ccc12 (racemic) [Example 16, N-(8-(3,5-dichlorophenyl)-4-ethyl-7-fluoroquinolin-3-yl)chromane-4-carboxamide]
- inhibition at 0.1 µg/mL [1]: > 80%
- inhibition at 1 µg/mL [2]: > 80%
- inhibition at 10 µg/mL [2]: > 80%
- EC50 [3]: < 0.1 µg/mL
- EC50 [4]: < 0.1 µg/mL
- pEC50 (D. immitis Slo-1): 6.00 to 7.00

Structure (SMILES): CN(C)c1c(NC(=O)C2CCOc3ccccc32)cnc2c(-c3cccc(Cl)c3Cl)c(F)ccc12 (racemic) [Example 17, N-(8-(2,3-dichlorophenyl)-4-(dimethylamino)-7-fluoroquinolin-3-yl)chroman-4-carboxamide]
- inhibition at 0.1 µg/mL [1]: > 80%
- inhibition at 1 µg/mL [2]: > 80%
- inhibition at 10 µg/mL [2]: > 80%
- EC50 [3]: < 0.1 µg/mL
- EC50 [4]: < 0.1 µg/mL
- pEC50 (D. immitis Slo-1): 6.00 to 7.00

Structure (SMILES): CN(C)c1c(NC(=O)C2CCc3ccccc32)cnc2c(-c3cccc(Cl)c3Cl)c(F)ccc12 (racemic) [Example 18, N-(8-(2,3-dichlorophenyl)-4-(dimethylamino)-7-fluoroquinolin-3-yl)-2,3-dihydro-1H-indene-1-carboxamide]
- inhibition at 1 µg/mL [2]: > 80%
- inhibition at 10 µg/mL [2]: > 80%
- EC50 [3]: < 0.1 µg/mL
- EC50 [4]: < 0.1 µg/mL
- pEC50 (D. immitis Slo-1): 6.00 to 7.00

Structure (SMILES): CN(C)c1c(NC(=O)[C@H]2CCOc3ccccc32)cnc2c(-c3cc(F)cc(F)c3F)cccc12 [Example 1, (S)-N-(4-(dimethylamino)-8-(2,3,5-trifluorophenyl)quinolin-3-yl)chromane-4-carboxamide]
- inhibition at 1 µg/mL [2]: > 80%
- inhibition at 10 µg/mL [2]: > 80%
- EC50 [3]: < 0.1 µg/mL
- EC50 [4]: < 0.1 µg/mL
- pEC50 (D. immitis Slo-1): 6.00 to 7.00

Structure (SMILES): CN(C)c1c(NC(=O)[C@@H]2CCc3ccccc32)cnc2c(-c3cc(F)cc(F)c3F)cccc12 [Example 4, (R)-N-(4-(dimethylamino)-8-(2,3,5-trifluorophenyl)quinolin-3-yl)-2,3-dihydro-1H-indene-1-carboxamide]
- EC50 [3]: < 0.1 µg/mL
- EC50 [4]: < 0.1 µg/mL
- pEC50 (D. immitis Slo-1): 6.00 to 7.00
